# Laboratory results as given in ChEMBL document CHEMBL1127198, “Identification of antibody mimotopes containing non-natural amino acids by recombinant and synthetic peptide library affinity selection methods” (Bioorg Med Chem Lett, 1993).
# Assays:
# [1] = Binding inhibitory activity of compound was evaluated against bacteriophage anti-gp120 monoclonal antibody by competition ELISA assay
# [2] = Loss of affinity of compound was determined for bacteriophage anti-gp120 monoclonal antibody by competition ELISA assay; 3 fold loss in affinity was observed
# [3] = Loss of affinity of compound was determined for bacteriophage anti-gp120 monoclonal antibody by competition ELISA assay; 10 fold loss in affinity was observed
# [4] = Loss of affinity of compound was determined for bacteriophage anti-gp120 monoclonal antibody by competition ELISA assay; 16 fold loss in affinity was observed
Substance,IC50 [1] [µM],Loss of affinity [2],Loss of affinity [3],Loss of affinity [4]
H-ASTRPM-OH,1.8,3,,
H-EATRPM-OH,6.3,,10,
H-ESARPM-OH,6.3,,10,
H-ESTAPM-OH,10,,,16
H-ESTRAM-OH,0.63,,,
H-ESTRPA-OH,10,,,16
H-ESTRPM-OH,0.63,,,
